How the values were obtained:
[1] = target: T1, Activin receptor type-1B (Homo sapiens) (UniProt P36896); assay: Inhibition of human ALK4 at 500 nM by HotSpot assay relative to control
T1 sequence (whole entry): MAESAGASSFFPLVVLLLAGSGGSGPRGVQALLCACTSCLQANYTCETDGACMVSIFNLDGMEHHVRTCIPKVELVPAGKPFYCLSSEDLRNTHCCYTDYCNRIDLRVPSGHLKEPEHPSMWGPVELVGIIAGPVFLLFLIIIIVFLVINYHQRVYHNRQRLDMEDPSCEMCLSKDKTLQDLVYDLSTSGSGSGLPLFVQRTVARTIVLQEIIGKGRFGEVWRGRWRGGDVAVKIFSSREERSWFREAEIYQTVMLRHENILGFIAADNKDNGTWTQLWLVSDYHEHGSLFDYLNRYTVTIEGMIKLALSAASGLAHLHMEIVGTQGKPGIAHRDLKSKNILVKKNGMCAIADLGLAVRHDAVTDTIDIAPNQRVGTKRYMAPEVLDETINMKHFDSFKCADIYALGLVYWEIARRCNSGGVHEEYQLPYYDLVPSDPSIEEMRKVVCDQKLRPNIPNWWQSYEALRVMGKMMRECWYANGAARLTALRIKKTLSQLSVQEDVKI

[2] = target: Hepatocyte growth factor receptor (Homo sapiens) (UniProt P08581); assay: Inhibition of human c-MET at 500 nM by HotSpot assay relative to control
Chain of Hepatocyte growth factor receptor (Homo sapiens) (P08581 whole entry): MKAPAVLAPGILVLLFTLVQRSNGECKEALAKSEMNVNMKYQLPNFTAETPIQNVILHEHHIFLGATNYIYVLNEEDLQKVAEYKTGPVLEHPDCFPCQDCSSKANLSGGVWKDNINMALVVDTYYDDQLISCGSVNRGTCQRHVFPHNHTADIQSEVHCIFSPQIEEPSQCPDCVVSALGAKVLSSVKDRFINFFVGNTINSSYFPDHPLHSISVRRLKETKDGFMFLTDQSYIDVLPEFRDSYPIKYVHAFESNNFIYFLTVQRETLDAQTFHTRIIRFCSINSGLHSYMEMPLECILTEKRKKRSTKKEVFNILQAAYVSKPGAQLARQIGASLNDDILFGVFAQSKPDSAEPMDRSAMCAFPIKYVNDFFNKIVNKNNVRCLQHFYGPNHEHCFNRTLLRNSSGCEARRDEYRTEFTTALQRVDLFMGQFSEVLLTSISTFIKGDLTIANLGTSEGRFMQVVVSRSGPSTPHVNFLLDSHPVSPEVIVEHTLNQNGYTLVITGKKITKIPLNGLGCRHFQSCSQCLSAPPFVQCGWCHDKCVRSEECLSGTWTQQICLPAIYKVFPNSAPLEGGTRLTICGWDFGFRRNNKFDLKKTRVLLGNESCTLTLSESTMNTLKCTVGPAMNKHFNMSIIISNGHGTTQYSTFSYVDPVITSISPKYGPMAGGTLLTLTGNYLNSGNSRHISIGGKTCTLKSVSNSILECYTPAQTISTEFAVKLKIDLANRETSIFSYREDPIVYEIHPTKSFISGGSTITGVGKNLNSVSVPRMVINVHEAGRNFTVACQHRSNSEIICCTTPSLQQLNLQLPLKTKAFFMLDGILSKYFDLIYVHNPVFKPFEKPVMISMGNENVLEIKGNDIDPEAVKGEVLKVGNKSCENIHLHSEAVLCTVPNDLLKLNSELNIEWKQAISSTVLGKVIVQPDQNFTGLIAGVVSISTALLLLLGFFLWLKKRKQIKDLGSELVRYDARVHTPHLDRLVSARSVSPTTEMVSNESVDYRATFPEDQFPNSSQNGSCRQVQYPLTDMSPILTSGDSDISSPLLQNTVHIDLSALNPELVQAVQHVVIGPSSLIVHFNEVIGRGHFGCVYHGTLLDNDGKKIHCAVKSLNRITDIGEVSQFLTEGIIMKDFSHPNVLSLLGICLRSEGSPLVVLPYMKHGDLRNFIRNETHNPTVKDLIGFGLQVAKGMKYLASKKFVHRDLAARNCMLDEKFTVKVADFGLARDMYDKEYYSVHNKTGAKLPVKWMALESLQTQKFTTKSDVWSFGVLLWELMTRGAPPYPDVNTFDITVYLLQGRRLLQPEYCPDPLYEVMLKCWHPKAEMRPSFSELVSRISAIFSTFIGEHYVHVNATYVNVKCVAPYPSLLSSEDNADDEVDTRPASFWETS

[3] = target: Cyclin-dependent kinase 5/CDK5 activator 1 (Homo sapiens) (UniProt Q00535+Q15078); assay: Inhibition of human CDK5/p25 at 500 nM by HotSpot assay relative to control; type: protein-complex assay
[4] = target: T2, Serine/threonine-protein kinase 17A (Homo sapiens) (UniProt Q9UEE5); assay: Inhibition of human DRAK1 at 500 nM by HotSpot assay relative to control
T2 sequence (whole entry): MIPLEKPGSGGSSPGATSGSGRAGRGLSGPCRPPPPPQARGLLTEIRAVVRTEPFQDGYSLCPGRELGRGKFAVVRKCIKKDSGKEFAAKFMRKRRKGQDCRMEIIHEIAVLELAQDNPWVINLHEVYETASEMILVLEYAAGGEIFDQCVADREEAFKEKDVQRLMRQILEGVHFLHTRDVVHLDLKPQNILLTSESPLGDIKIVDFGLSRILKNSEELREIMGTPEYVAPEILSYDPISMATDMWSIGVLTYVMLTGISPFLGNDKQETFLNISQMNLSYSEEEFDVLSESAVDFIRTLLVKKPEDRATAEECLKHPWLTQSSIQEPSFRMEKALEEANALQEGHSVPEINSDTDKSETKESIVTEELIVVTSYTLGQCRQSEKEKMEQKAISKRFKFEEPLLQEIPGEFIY

[5] = target: Dual specificity tyrosine-phosphorylation-regulated kinase 1A (Homo sapiens) (UniProt Q13627); assay: Inhibition of human DYRK1 at 500 nM by HotSpot assay relative to control
[6] = target: Receptor-type tyrosine-protein kinase FLT3 (Homo sapiens) (UniProt P36888); assay: Inhibition of human FLT3 at 500 nM by HotSpot assay relative to control
Chain of Receptor-type tyrosine-protein kinase FLT3 (Homo sapiens) (P36888 whole entry): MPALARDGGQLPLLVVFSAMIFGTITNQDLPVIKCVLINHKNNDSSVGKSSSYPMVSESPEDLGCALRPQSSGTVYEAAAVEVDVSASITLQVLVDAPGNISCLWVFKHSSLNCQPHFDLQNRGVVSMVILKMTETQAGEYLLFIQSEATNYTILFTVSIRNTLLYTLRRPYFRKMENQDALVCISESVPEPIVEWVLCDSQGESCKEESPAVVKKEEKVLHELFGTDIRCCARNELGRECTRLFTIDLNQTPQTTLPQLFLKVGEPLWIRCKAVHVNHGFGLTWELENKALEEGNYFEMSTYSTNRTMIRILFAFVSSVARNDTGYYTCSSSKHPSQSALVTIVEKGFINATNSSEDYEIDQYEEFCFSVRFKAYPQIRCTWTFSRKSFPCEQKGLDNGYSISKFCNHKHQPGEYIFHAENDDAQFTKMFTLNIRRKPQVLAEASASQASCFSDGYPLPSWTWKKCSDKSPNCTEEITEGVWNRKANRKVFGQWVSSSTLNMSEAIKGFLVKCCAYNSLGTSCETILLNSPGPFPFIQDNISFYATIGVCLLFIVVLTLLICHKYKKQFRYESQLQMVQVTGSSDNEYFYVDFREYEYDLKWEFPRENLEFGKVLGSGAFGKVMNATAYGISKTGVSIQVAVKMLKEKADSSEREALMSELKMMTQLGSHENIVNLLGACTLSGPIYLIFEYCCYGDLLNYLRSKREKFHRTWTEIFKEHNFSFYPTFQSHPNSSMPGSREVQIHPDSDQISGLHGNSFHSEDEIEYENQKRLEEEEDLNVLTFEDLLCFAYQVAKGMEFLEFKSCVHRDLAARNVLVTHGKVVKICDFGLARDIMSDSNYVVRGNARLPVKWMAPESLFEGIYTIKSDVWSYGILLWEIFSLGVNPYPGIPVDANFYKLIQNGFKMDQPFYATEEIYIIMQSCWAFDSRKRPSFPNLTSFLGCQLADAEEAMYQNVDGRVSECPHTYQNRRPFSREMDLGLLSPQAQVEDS

[7] = target: T3, Mitogen-activated protein kinase kinase kinase kinase 2 (Homo sapiens) (UniProt Q12851); assay: Inhibition of human GCK at 500 nM by HotSpot assay relative to control
T3 sequence (whole entry): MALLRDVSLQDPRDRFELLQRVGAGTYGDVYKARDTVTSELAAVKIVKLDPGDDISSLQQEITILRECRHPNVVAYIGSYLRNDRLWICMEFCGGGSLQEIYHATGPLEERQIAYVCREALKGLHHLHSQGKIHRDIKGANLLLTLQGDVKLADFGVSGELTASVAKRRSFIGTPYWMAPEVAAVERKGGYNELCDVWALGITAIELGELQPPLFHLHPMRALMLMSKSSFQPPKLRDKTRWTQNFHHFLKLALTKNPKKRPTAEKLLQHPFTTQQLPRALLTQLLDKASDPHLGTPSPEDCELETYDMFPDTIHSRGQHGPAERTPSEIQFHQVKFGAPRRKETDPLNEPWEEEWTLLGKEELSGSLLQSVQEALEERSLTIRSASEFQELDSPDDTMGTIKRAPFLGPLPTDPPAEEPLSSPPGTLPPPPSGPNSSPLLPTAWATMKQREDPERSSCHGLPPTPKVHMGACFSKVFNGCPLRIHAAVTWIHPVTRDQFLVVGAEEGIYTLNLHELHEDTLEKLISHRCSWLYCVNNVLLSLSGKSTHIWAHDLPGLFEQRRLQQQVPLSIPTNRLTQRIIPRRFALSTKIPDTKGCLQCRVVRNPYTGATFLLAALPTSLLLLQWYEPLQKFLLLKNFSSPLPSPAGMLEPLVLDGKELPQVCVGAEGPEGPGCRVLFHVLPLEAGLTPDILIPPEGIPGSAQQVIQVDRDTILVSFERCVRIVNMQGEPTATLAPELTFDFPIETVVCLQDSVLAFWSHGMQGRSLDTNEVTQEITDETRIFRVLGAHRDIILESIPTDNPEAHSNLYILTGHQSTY

[8] = target: Mitogen-activated protein kinase 10 (Homo sapiens) (UniProt P53779); assay: Inhibition of human JNK3 at 500 nM by HotSpot assay relative to control
Chain of Mitogen-activated protein kinase 10 (Homo sapiens) (P53779 whole entry): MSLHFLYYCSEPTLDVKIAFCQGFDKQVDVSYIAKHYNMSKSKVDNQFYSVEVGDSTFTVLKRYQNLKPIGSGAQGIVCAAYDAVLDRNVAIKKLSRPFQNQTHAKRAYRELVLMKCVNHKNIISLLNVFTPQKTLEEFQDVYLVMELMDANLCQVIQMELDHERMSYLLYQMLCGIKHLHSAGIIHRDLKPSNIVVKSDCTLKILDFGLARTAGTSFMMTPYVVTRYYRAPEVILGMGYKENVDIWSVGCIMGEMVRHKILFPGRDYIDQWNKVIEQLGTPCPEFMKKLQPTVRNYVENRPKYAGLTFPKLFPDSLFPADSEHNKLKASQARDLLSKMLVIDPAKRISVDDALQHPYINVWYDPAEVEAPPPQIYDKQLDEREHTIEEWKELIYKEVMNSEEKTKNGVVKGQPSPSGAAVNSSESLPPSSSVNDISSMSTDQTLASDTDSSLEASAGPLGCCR

[9] = target: T4, Serine/threonine-protein kinase STK11 (Homo sapiens) (UniProt Q15831); assay: Inhibition of human LKB1 at 500 nM by HotSpot assay relative to control
T4 sequence (whole entry): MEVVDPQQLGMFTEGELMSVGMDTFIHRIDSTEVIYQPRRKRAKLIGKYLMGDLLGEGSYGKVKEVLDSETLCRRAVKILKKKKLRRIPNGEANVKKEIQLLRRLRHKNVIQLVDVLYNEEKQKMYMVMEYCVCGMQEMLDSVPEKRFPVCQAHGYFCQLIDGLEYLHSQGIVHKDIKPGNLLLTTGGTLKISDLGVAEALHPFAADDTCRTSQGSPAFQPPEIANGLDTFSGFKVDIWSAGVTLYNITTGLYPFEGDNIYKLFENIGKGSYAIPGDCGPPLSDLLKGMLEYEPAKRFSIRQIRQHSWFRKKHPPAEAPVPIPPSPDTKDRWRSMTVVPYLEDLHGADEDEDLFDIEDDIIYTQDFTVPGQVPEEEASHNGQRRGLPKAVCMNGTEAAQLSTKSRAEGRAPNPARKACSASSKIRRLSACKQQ

[10] = target: MAP/microtubule affinity-regulating kinase 3 (Homo sapiens) (UniProt P27448); assay: Inhibition of human MARK3 at 500 nM by HotSpot assay relative to control
Chain of MAP/microtubule affinity-regulating kinase 3 (Homo sapiens) (P27448 whole entry, looked up): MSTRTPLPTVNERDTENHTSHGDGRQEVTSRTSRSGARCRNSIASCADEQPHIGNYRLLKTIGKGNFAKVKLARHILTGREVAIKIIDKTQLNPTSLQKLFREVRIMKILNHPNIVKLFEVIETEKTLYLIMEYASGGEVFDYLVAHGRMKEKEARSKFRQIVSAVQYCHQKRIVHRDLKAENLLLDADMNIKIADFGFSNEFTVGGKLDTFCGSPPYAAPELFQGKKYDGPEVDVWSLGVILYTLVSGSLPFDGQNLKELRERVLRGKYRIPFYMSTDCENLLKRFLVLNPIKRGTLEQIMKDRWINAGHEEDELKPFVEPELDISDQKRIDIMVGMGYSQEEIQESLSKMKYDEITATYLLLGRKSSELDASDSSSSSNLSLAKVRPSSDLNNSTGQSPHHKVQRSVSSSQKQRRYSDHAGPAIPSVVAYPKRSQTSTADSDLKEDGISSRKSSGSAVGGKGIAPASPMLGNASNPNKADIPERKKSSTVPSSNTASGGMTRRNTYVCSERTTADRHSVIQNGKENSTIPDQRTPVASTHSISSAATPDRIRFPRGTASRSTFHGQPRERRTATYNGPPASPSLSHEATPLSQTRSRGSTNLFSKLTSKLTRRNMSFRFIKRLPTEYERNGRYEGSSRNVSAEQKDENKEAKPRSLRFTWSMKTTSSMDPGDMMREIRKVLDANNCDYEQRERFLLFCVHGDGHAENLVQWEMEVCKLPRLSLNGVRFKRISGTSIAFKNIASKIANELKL

[11] = target: Maternal embryonic leucine zipper kinase (Homo sapiens) (UniProt Q14680); assay: Inhibition of human MELK at 500 nM by HotSpot assay relative to control
Chain of Maternal embryonic leucine zipper kinase (Homo sapiens) (Q14680 whole entry, looked up): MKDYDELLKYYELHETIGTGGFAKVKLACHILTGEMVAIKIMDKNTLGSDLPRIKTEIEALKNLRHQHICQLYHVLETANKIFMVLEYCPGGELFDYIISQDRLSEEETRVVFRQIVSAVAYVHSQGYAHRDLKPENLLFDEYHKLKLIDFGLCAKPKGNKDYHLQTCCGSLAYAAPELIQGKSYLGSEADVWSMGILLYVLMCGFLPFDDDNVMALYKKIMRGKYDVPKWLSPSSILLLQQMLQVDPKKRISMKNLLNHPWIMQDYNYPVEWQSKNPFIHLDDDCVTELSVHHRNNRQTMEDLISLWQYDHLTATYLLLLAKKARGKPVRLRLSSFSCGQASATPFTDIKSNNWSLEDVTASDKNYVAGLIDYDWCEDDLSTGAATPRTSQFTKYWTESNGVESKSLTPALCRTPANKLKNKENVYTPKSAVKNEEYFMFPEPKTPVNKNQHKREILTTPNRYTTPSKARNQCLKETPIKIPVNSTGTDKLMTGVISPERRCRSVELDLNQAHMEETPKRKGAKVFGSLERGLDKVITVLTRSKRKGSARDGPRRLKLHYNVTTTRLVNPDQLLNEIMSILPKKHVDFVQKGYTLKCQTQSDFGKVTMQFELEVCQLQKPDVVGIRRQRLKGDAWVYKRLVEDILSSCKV

[12] = target: Rho-associated protein kinase 2 (Homo sapiens) (UniProt O75116); assay: Inhibition of human ROCK2 at 500 nM by HotSpot assay relative to control
[13] = target: NT-3 growth factor receptor (Homo sapiens) (UniProt Q16288); assay: Inhibition of human TRKC at 500 nM by HotSpot assay relative to control
Chain of NT-3 growth factor receptor (Homo sapiens) (Q16288 32-839 limits assumed): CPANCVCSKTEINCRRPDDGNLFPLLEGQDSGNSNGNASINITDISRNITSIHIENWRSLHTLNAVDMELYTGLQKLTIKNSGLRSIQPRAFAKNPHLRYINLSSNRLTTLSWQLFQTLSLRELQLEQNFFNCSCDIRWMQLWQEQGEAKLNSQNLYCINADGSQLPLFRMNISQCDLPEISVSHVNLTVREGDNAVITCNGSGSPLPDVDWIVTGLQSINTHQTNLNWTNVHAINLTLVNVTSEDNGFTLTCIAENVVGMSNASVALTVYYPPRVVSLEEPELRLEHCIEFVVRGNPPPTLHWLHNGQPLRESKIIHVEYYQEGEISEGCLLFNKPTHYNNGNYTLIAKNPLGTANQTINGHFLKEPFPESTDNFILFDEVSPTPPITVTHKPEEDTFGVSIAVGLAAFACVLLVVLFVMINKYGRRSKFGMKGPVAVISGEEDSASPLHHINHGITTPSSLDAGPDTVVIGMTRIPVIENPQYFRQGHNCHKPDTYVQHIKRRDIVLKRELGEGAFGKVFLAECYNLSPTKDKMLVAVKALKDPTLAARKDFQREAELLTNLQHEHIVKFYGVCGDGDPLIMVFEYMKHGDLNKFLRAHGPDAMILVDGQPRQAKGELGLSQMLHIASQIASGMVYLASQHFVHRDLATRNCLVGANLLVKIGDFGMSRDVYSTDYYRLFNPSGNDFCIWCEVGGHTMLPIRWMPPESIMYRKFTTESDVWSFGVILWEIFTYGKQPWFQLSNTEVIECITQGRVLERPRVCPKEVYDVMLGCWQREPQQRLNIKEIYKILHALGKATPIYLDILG

Row | SMILES | inhibition [1] [%] | inhibition [2] [%] | inhibition [3] [%] | inhibition [4] [%] | inhibition [5] [%] | inhibition [6] [%] | inhibition [7] [%] | inhibition [8] [%] | inhibition [9] [%] | inhibition [10] [%] | inhibition [11] [%] | inhibition [12] [%] | inhibition [13] [%]
1 | Oc1n[nH]c2nnc(-c3c(-c4ccccc4)nn4ccccc34)cc12 | 0.15 | 4.83 | 1.29 | -1.05 | -2.58 | 4.49 | -5.76 | 5.98 | 7.3 | -2.48 | -1.3 | 0.7 | 2.25
2 | Nc1n[nH]c2nnc(-c3c(-c4ccccc4)nn4ccccc34)cc12 | -6.71 | 5.04 | -0.57 | 0.09 | -1.99 | 36.5 | 1.42 | -3.19 | 8.15 | 0.66 | -1.59 | 10.4 | 23.4
